Data on 51 molecules can be found in ChEMBL document CHEMBL1141372, “Synthesis and pharmacophore modeling of naphthoquinone derivatives with cytotoxic activity in human promyelocytic leukemia HL-60 cell line” (J Med Chem, 2007).

A word on the IC50: it is the midpoint of a concentration-inhibition curve. Read a high IC50 as weaker potency in that assay. One may read the logP as the decadic logarithm of the partition coefficient of the neutral form, usually between octanol and water.

Data set [1] has as its system HL-60. The data set can be described thus: Cytotoxicity against human promyelocytic leukemia HL60 cell line by MTT assay. Format: cell-based. In general terms: Tetrazolium assays rely on reduction of a dye to a coloured formazan, in cell work by metabolically active cells.
Data set [2] is described as follows: Partition coefficient, log P of the compound. Format: physicochemical. The following applies: octanol/water.

In data set [1], `CC(C)CCC1=C(O)C(=O)c2ccccc2C1=O` gave an IC50 of 62.1 µM. For the same molecule, the log partition coefficient (logP) in data set [2] (read-out: LogP) stood at 4.1.
`CC(=O)OC1CC2=C(OC1(C)C)c1ccccc1C(=O)C2=O` (configuration not stated): the IC50 in data set [1] came out at 0.68 µM. In data set [2] (read-out: LogP), the log partition coefficient (logP) was 3.
In the same order, the values of `CC1(C)OC2=C(CC1Br)C(=O)C(=O)c1ccccc12` (configuration not stated) are 0.13 µM and 3.6.
The molecule `CC1(C)OC2=C(C=C1Br)C(=O)C(=O)c1ccccc12` displayed an IC50 in data set [1] of 0.2 µM. The logP in data set [2] (read-out: LogP) is 3.5.
In the same order, the values of `CC1(C)Oc2c(c3nccnc3c3ccccc23)CC1O` (configuration not stated) are 28.2 µM and 3.2.
Take `CC1(C)OC2=C(C(=O)C(=O)c3ccccc32)C(O)C1Br` (configuration not stated): it took 0.12 µM to reach half-maximal inhibition in data set [1] (IC50). For the same molecule, the logP in data set [2] (read-out: LogP) is 3.1.
For `CC1(C)C[C@H](O)C2=C(O1)c1ccccc1C(=O)C2=O` the same measures were 0.57 µM and 2.2.
In the same order, the values of `CO[C@@H](C(=O)O[C@@H]1CC2=C(OC1(C)C)c1ccccc1C(=O)C2=O)c1ccccc1` are 0.26 µM and 5.
Turning to `CC(C)=CCC1=C(O[Si](C)(C)C(C)(C)C)C(=O)c2ccccc2C1=O`, 11.4 µM corresponded to half-maximal inhibition in data set [1] (IC50). Further, the log partition coefficient (logP) in data set [2] (read-out: LogP) came out at 7.3.
For `CC1(C)Oc2c(c3nc4c(nc3c3ccccc23)CCCC4)CC1O` (configuration not stated) the same measures were 13.4 µM and 4.8.
For `CC1(C)OC2=C(CC1O)C(=O)c1ccccc1C2=O` (configuration not stated) the same measures were 1.35 µM and 2.7.
For `CC1(C)OC2=C(CC1Br)C(=O)c1ccccc1C2=O` (configuration not stated) the same measures were 1.36 µM and 4.1.
In data set [1], `COc1cc(C(=O)OC2=C(CC=C(C)C)C(=O)c3ccccc3C2=O)cc(OC)c1OC` displayed a 50% inhibitory concentration (IC50) of 8.06 µM. The lipophilicity (logP) in data set [2] (read-out: LogP) turned out to be 6.3.
In the same order, the values of `CC(C)(O)C1CC2=C(O1)c1ccccc1C(=O)C2=O` (configuration not stated) are 1.97 µM and 1.6.
For `CC(=O)OC1=C(CC=C(C)C)C(=O)c2ccccc2C1=O` the same measures were 4.51 µM and 4.5.
In the same order, the values of `CC(=O)OC1=C(CC(O)C(C)(C)O)C(=O)c2ccccc2C1=O` (configuration not stated) are 48.1 µM and 1.8.
With `CC(C)CCC1=C(O)C(=O)C2=C(CCCC2)C1=O`, half-maximal inhibition in data set [1] (IC50) required 34.6 µM. In data set [2] (read-out: LogP), the logP was 4.2.
Turning to `COCOC1=C(CCC(C)C)C(=O)c2ccccc2C1=O`, 53.9 µM corresponded to half-maximal inhibition in data set [1] (IC50). For the same molecule, the logP in data set [2] (read-out: LogP) stood at 4.4.
For `CC(C)=CCC1=C2NC3CCCCC3N=C2c2ccccc2C1=O` (configuration not stated) the same measures were 15.5 µM and 4.2.
For `CC(=O)OC1=C(CC2OC2(C)C)C(=O)c2ccccc2C1=O` (configuration not stated) the same measures were 1.89 µM and 3.
In the same order, the values of `CC1(C)Oc2c(c3nccnc3c3ccccc23)CC1Br` (configuration not stated) are 24.1 µM and 4.8.
Regarding `CC(C)(O)C1Cc2c(c3ccccc3c3nccnc23)O1` (configuration not stated), in data set [1], half-maximal inhibition (IC50) was put at 44.1 µM. Besides, the logP in data set [2] (read-out: LogP) was 2.5.
For `CCOC1CCC2=C(O1)C(=O)c1ccccc1C2=O` (configuration not stated) the same measures were 29.7 µM and 2.8.
In the same order, the values of `CC(=O)OC1=C(CC(Br)C(C)(C)Br)C(=O)c2ccccc2C1=O` (configuration not stated) are 2.23 µM and 5.1.
In the same order, the values of `CC1(C)CCc2c(c3ccccc3c3nc4c(nc23)CCCC4)O1` are at least 100 µM and 6.4.
Turning to `CO[C@@H](C(=O)O[C@H]1CC2=C(OC1(C)C)c1ccccc1C(=O)C2=O)c1ccccc1`, in data set [1], the IC50 worked out at 0.11 µM. In data set [2] (read-out: LogP), the logP was determined as 5.
For `CC(C)(O)C1CC(=O)c2nccnc2-c2ccccc2C(=O)O1` (configuration not stated) the same measures were over 100 µM and 2.4.
In the same order, the values of `CC1(C)CCC(=O)c2nccnc2-c2ccccc2C(=O)O1` are 47.1 µM and 3.9.
On to `CC(C)C(=O)OC1CC2=C(OC1(C)C)c1ccccc1C(=O)C2=O` (configuration not stated), for which the IC50 in data set [1] stood at 0.24 µM. Moreover, the logP in data set [2] (read-out: LogP) came to 3.8.
For `O=C1C2=C(OC(c3ccccc3)C2)C(=O)c2ccccc21` (configuration not stated) the same measures were 2.65 µM and 3.7.
In the same order, the values of `CC1(C)CCC2=C(O1)c1ccccc1/C(=N/O)C2=O` are 3.2 µM and 4.6.
For `Cc1ccc(CC2=C(O)C(=O)c3ccccc3C2=O)o1` the same measures were 68.2 µM and 3.6.
The molecule `O=C1C2=C(OC(c3ccccc3)CC2)C(=O)c2ccccc21` (configuration not stated) returned a half-maximal inhibitory concentration (IC50) in data set [1] of 22.9 µM. Besides, the logP in data set [2] (read-out: LogP) amounted to 4.7.
In turn, `CC(C)(O)C1Cc2c(O)c([N+](=O)[O-])c3ccccc3c2O1` (configuration not stated) returned an IC50 in data set [1] of 47 µM. Besides, in data set [2] (read-out: LogP), the logP amounted to 2.7.
For `CC(C)(O[N+](=O)[O-])C1CC2=C(O1)C(=O)c1ccccc1C2=O` (configuration not stated) the same measures were 1.24 µM and 3.4.
For `CC(=O)OC1=C(CC(Br)C(C)(C)O)C(=O)c2ccccc2C1=O` (configuration not stated) the same measures were 0.52 µM and 3.5.
For `CC(C)=CC1=C(O)C(=O)c2ccccc2C1=O` the same measures were 27.7 µM and 3.2.
For the molecule `CC(C)(O)C1CC2=C(O1)C(=O)c1ccccc1C2=O` (configuration not stated), the IC50 in data set [1] worked out at 1.85 µM. In addition, the logP in data set [2] (read-out: LogP) was determined as 2.
In the case of `CCCCCCCCCCCC(=O)OC1=C(CC=C(C)C)C(=O)c2ccccc2C1=O`, the midpoint of inhibition in data set [1], the IC50, lay at 26.3 µM. In data set [2], the log partition coefficient (logP) is 9.9.
For `CC1(C)C[C@@H](O)C2=C(O1)c1ccccc1C(=O)C2=O`, half-maximal inhibition in data set [1] (IC50) required 0.55 µM. Besides, the logP in data set [2] (read-out: LogP) was 2.2.
In the same order, the values of `CC(=O)OC1Cc2c(c3ccccc3c3nc4c(nc23)CCCC4)OC1(C)C` (configuration not stated) are 24.2 µM and 5.7.
`CC(C)(Br)C1CC2=C(O1)c1ccccc1C(=O)C2=O` (configuration not stated) came in with an IC50 in data set [1] of 0.7 µM. Further, in data set [2] (read-out: LogP), the lipophilicity (logP) came to 3.2.
In the same order, the values of `CC(C)(O)C1Cc2c(c3ccccc3c3nc4c(nc23)CCCC4)O1` (configuration not stated) are 31.9 µM and 4.2.
Regarding `CCCCCCCCCCCC(=O)OC1CC2=C(OC1(C)C)c1ccccc1C(=O)C2=O` (configuration not stated), in data set [1], the IC50 came to 0.26 µM. Moreover, the lipophilicity (logP) in data set [2] (read-out: LogP) was determined as 8.3.
In the same order, the values of `CC1(C)CCc2c(c3ccccc3c3nccnc23)O1` are 23.7 µM and 4.7.
For `CC1(C)OC2=C(CC1OC(=O)c1ccc(C#N)cc1)C(=O)C(=O)c1ccccc12` (racemic) the same measures were 0.13 µM and 4.7.
Turning to `CC1(C)OC2=C(CC1OC(=O)c1ccc(Br)cc1)C(=O)C(=O)c1ccccc12` (racemic), the half-maximal inhibitory concentration (IC50) in data set [1] worked out at 0.45 µM. The lipophilicity (logP) in data set [2] (read-out: LogP) came to 5.8.
In the same order, the values of `CC1(C)CCC2=C(O1)C(=O)c1ccccc1C2=O` [ALPHA-LAPACHONE] are 13.5 µM and 3.5.
In the case of `C=C(C)C1CC2=C(O1)C(=O)c1ccccc1C2=O` (stereo not drawn) [DEHYDROISO-ALPHA-LAPACHONE], in data set [1], the IC50 is 1.46 µM. The logP in data set [2] (read-out: LogP) worked out at 3.4.
Turning to `CC(C)=CCC1=C(O)C(=O)c2ccccc2C1=O` [LAPACHOL], half-maximal inhibition in data set [1] (IC50) required 3.18 µM. Also, the log partition coefficient (logP) in data set [2] (read-out: LogP) was 4.1.
As for `CC1(C)CCC2=C(O1)c1ccccc1C(=O)C2=O` [LAPACHONE], in data set [1], 0.27 µM corresponded to half-maximal inhibition (IC50). For the same molecule, the logP in data set [2] (read-out: LogP) was found to be 3.2.
